# Data: patent US20250144067A1, “PERSONALIZED STARVATION THERAPY FOR CANCER” (Faeth Therapeutics, Inc., priority 2021, published 2025)
# Counter-ions that a name gives are not always drawn. Like-named read-outs stand apart in the source and are kept apart here.
# Legend:
# [1] = tested on: NCI-H292 lung cancer cells; assay: FDA drug screening, complete media vs cholesterol-free media with simvastatin (TABLE 2); format: cell-based, human
# [2] = tested on: NCI-H292 lung cancer cells; assay: FDA drug screening, complete media vs cholesterol-free media without statin (TABLE 1); format: cell-based, human
# [3] = NCI-H292 cells, FDA drug library screen, cholesterol-free media with simvastatin 0.04 μM
# [4] = NCI-H292 cells, FDA drug library screen, complete media
# [5] = complete media vs cholesterol-free media + simvastatin (0.04 μM), >0 enhanced anti-cancer activity, about 0 neutral, <0 antagonist
# [6] = Complete minus Cholesterol-free, greater than 0 enhanced anti-cancer activity, about 0 neutral, below 0 antagonists
# [7] = NCI-H292 cells in cholesterol-free media without statin
# [8] = NCI-H292 cells in complete media
# [9] = NCI-H292 cells, cholesterol-free media with simvastatin 0.04 μM, cell growth value in FDA drug screen
# [10] = NCI-H292 cells, complete media, cell growth value in FDA drug screen
# [11] = complete media minus cholesterol-free media + simvastatin, >0 enhanced anti-cancer activity, about 0 neutral, <0 antagonist
# [12] = Complete minus Cholesterol-free, >0 enhanced anti-cancer activity, about 0 neutral, <0 antagonist
# [13] = NCI-H292 cells, cholesterol-free media without statin, FDA drug library screen
# [14] = NCI-H292 cells, complete media, FDA drug library screen
# [15] = NCI-H292 cells, cholesterol-free media without statin
# [16] = NCI-H292 cells, cholesterol-free media with simvastatin 0.04 μM, FDA drug library screen (TABLE 2)
# [17] = NCI-H292 cells, complete media, FDA drug library screen (TABLE 2)
# [18] = complete media minus cholesterol-free media + simvastatin (0.04 μM), >0 enhanced anti-cancer activity, about 0 neutral, <0 antagonist
# [19] = complete vs cholesterol-free media, >0 enhanced anti-cancer activity, about 0 neutral, <0 antagonist
# [20] = Complete minus Cholesterol-free, greater than 0 enhanced anti-cancer activity, about 0 neutral, below 0 antagonist
# [21] = NCI-H292 cells, FDA drug library screen, cholesterol-free media without statin
# [22] = NCI-H292 cells, drug in cholesterol-free media with simvastatin 0.04 μM
# [23] = NCI-H292 cells, drug in complete media
# [24] = complete vs cholesterol-free media, greater than 0 enhanced anti-cancer activity, about 0 neutral, below 0 antagonists
smiles,measurement,setting,value
Cc1nc2c([nH]1)-c1ccccc1N(C(=O)c1ccc(NC(=O)c3ccccc3-c3ccccc3)cc1)CC2 [Conivaptan (hydrochloride)],Cholesterol-free media + simvastatin (0.04 μM),[1]; [3],1.147
same,Complete Media,[1]; [4],1.002
same,Difference,[1]; [5],−0.15
same,Difference,[2]; [6],−0.65
same,Cholesterol-free,[2]; [7],1.641
same,Complete,[2]; [8],0.989
COc1c(OCCCN2CCOCC2)ccc2c1N=C(NC(=O)c1cnc(N)nc1)N1CCN=C21 [Copanlisib (dihydrochloride)],Cholesterol-free media + simvastatin (0.04 μM),[1]; [9],0.2902
same,Complete Media,[1]; [10],0.3694
same,Difference,[1]; [11],0.08
same,Difference,[2]; [12],0.02
same,Cholesterol-free,[2]; [13],0.07316
same,Complete,[2]; [14],0.09563
CC(=O)OCC(=O)[C@@]1(O)CC[C@H]2[C@@H]3CCC4=CC(=O)CC[C@]4(C)[C@H]3C(=O)C[C@@]21C [Cortisone acetate],Cholesterol-free media + simvastatin (0.04 μM),[1]; [9],1.003
same,Complete Media,[1]; [10],1.101
same,Difference,[1]; [11],0.10
same,Difference,[2]; [6],−1.35
same,Cholesterol-free,[2]; [7],2.332
same,Complete,[2]; [8],0.9837
C[C@]12CCC(=O)C=C1CC[C@@H]1[C@@H]2C(=O)C[C@@]2(C)[C@H]1CC[C@]2(O)C(=O)CO [Cortisone],Cholesterol-free media + simvastatin (0.04 μM),[1]; [3],1.033
same,Complete Media,[1]; [4],0.8818
same,Difference,[1]; [5],−0.15
same,Difference,[2]; [12],−0.30
same,Cholesterol-free,[2]; [15],1.216
same,Complete,"[2]; NCI-H292 cells, complete media",0.9117
O=c1ccc2ccccc2o1 [Coumarin],Cholesterol-free media + simvastatin (0.04 μM),[1]; [16],0.8441
same,Complete Media,[1]; [17],0.7948
same,Difference,[1]; [18],−0.05
same,Cholesterol-free,[2]; [13],0.9742
same,Complete,[2]; [14],1.716
same,Difference,[2]; [19],0.74
CN(CC(=O)O)C(=N)N [Creatine],Cholesterol-free media + simvastatin (0.04 μM),[1]; [3],1.925
same,Complete Media,[1]; [4],1.831
same,Difference,[1]; [5],−0.09
same,Difference,[2]; [6],−0.96
same,Cholesterol-free,[2]; [7],2.303
same,Complete,[2]; [8],1.348
N#Cc1ccc(Oc2ccc3c(c2)COB3O)cc1 [Crisaborole],Cholesterol-free media + simvastatin (0.04 μM),"[1]; NCI-H292 cells, FDA library drug in cholesterol-free media with simvastatin 0.04 μM",1.417
same,Complete Media,"[1]; NCI-H292 cells, FDA library drug in complete media",0.9479
same,Difference,[1]; [5],−0.47
same,Difference,[2]; [20],−0.14
same,Cholesterol-free,[2]; [21],1.199
same,Complete,[2]; [4],1.059
C[C@@H](Oc1cc(-c2cnn(C3CCNCC3)c2)cnc1N)c1c(Cl)ccc(F)c1Cl [Crizotinib (hydrochloride)],Cholesterol-free media + simvastatin (0.04 μM),[1]; [9],0.4168
same,Complete Media,[1]; [10],0.4474
same,Difference,[1]; [11],0.03
same,Cholesterol-free,[2]; [13],0.1813
same,Complete,[2]; [14],0.2796
same,Difference,[2]; [19],0.10
C[C@@H](Oc1cc(-c2cnn(C3CCNCC3)c2)cnc1N)c1c(Cl)ccc(F)c1Cl [Crizotinib],Cholesterol-free media + simvastatin (0.04 μM),[1]; [9],0.4044
same,Complete Media,[1]; [10],0.5269
same,Difference,[1]; [11],0.12
same,Cholesterol-free,[2]; [13],0.1411
same,Complete,[2]; [14],0.3735
same,Difference,[2]; [19],0.23
CC(/C=C/C=C(\C)C(=O)O[C@@H]1O[C@H](CO[C@@H]2O[C@H](CO)[C@@H](O)[C@H](O)[C@H]2O)[C@@H](O)[C@H](O)[C@H]1O)=C\C=C\C=C(C)\C=C\C=C(/C)C(=O)O[C@@H]1O[C@H](CO[C@@H]2O[C@H](CO)[C@@H](O)[C@H](O)[C@H]2O)[C@@H](O)[C@H](O)[C@H]1O [Crocin],Cholesterol-free media + simvastatin (0.04 μM),[1]; [22],1.135
same,Complete Media,[1]; [23],0.9252
same,Difference,[1]; [5],−0.21
same,Difference,[2]; [20],−0.11
same,Cholesterol-free,[2]; [21],1.099
same,Complete,[2]; [4],0.9914
O=C(O)c1cc(=O)c2c(OCC(O)COc3cccc4oc(C(=O)O)cc(=O)c34)cccc2o1 [Cromolyn (sodium)],Cholesterol-free media + simvastatin (0.04 μM),[1]; [9],0.821
same,Complete Media,[1]; [10],0.9131
same,Difference,[1]; [11],0.09
same,Difference,[2]; [6],−0.63
same,Cholesterol-free,[2]; [7],1.66
same,Complete,[2]; [8],1.032
CC=CC(=O)N(CC)c1ccccc1C [Crotamiton],Cholesterol-free media + simvastatin (0.04 μM),[1]; [22],1.259
same,Complete Media,[1]; [23],1.088
same,Difference,"[1]; complete media vs cholesterol-free media + simvastatin (0.04 μM), […]",−0.17
same,Difference,"[2]; Complete minus Cholesterol-free, […]",−0.17
same,Cholesterol-free,[2]; [21],1.084
same,Complete,[2]; [4],0.9155
CC1CC(OC(=O)C(O)c2ccccc2)CC(C)(C)C1 (centres unmarked) [Cyclandelate],Cholesterol-free media + simvastatin (0.04 μM),[1]; [22],1.188
same,Complete Media,[1]; [23],0.9668
same,Difference,[1]; [5],−0.22
same,Difference,[2]; [12],−0.23
same,Cholesterol-free,[2]; [15],1.162
same,Complete,"[2]; NCI-H292 cells, complete media",0.935
CN(C)CCC=C1c2ccccc2C=Cc2ccccc21 [Cyclobenzaprine (hydrochloride)],Cholesterol-free media + simvastatin (0.04 μM),[1]; [3],1.036
same,Complete Media,[1]; [4],1.3
same,Difference,[1]; [11],0.26
same,Cholesterol-free,[2]; [13],1.08
same,Complete,[2]; [14],1.26
same,Difference,[2]; [19],0.18
CN(C)CCOC(=O)C(c1ccccc1)C1(O)CCCC1 (centres unmarked) [Cyclopentolate (hydrochloride)],Cholesterol-free media + simvastatin (0.04 μM),[1]; [22],1.064
same,Complete Media,[1]; [23],0.8727
same,Difference,[1]; [5],−0.19
same,Difference,[2]; [6],−0.56
same,Cholesterol-free,[2]; [7],1.412
same,Complete,[2]; [8],0.8527
CN1CCC(=C2c3ccccc3C=Cc3ccccc32)CC1 [Cyproheptadine (hydrochloride sesquihydrate)],Cholesterol-free media + simvastatin (0.04 μM),[1]; [9],1.087
same,Complete Media,[1]; [10],1.192
same,Difference,[1]; [11],0.11
same,Cholesterol-free,[2]; [13],0.8413
same,Complete,[2]; [14],1.399
same,Difference,[2]; [19],0.56
CN1CCC(=C2c3ccccc3C=Cc3ccccc32)CC1 [Cyproheptadine (hydrochloride)],Cholesterol-free media + simvastatin (0.04 μM),[1]; [3],0.6096
same,Complete Media,[1]; [4],0.7817
same,Difference,[1]; [11],0.17
same,Cholesterol-free,[2]; [13],0.9826
same,Complete,[2]; [14],1.57
same,Difference,[2]; [19],0.59
CC(=O)O[C@]1(C(C)=O)CC[C@H]2[C@@H]3C=C(Cl)C4=CC(=O)[C@@H]5C[C@@H]5[C@]4(C)[C@H]3CC[C@@]21C [Cyproterone acetate],Cholesterol-free media + simvastatin (0.04 μM),[1]; [9],1.003
same,Complete Media,[1]; [10],1.068
same,Difference,[1]; [11],0.07
same,Difference,[2]; [6],−1.74
same,Cholesterol-free,[2]; [7],2.754
same,Complete,[2]; [8],1.015
NCCS [Cysteamine hydrochloride],Cholesterol-free media + simvastatin (0.04 μM),[1]; [3],0.9975
same,Complete Media,[1]; [4],0.86
same,Difference,[1]; [5],−0.14
same,Cholesterol-free,[2]; [13],1.255
same,Complete,[2]; [14],1.431
same,Difference,[2]; [19],0.18
Nc1ccn([C@@H]2O[C@H](CO)[C@@H](O)[C@@H]2O)c(=O)n1 [Cytarabine (hydrochloride)],Cholesterol-free media + simvastatin (0.04 μM),[1]; [16],0.3553
same,Complete Media,[1]; [17],0.3011
same,Difference,[1]; [18],−0.05
same,Difference,[2]; [20],−0.08
same,Cholesterol-free,[2]; [21],0.1883
same,Complete,[2]; [4],0.1064
Nc1ccn([C@@H]2O[C@H](CO)[C@@H](O)[C@@H]2O)c(=O)n1 [Cytarabine],Cholesterol-free media + simvastatin (0.04 μM),[1]; [3],0.2698
same,Complete Media,[1]; [4],0.1951
same,Difference,[1]; [5],−0.07
same,Difference,[2]; [12],−0.05
same,Cholesterol-free,[2]; [13],0.08949
same,Complete,[2]; [14],0.04199
Nc1ccn([C@@H]2O[C@H](CO)[C@@H](O)[C@H]2O)c(=O)n1 [Cytidine],Cholesterol-free media + simvastatin (0.04 μM),[1]; [22],1.411
same,Complete Media,[1]; [23],1.221
same,Difference,[1]; [5],−0.19
same,Difference,[2]; [12],−0.23
same,Cholesterol-free,[2]; [15],1.318
same,Complete,"[2]; NCI-H292 cells, complete media",1.09
O=c1cccc2n1C[C@@H]1CNC[C@H]2C1 [Cytisinicline],Cholesterol-free media + simvastatin (0.04 μM),[1],1.003
same,Complete Media,[1],1.015
same,Difference,[1],0.01
same,Cholesterol-free,[2],1.156
same,Complete,[2],0.9676
same,Difference,[2],−0.19
"O=C1O[C@H](CO)[C@@H](O)[C@H](O)[C@H]1O [D-(+)-Glucono-1,5-lactone]",Cholesterol-free media + simvastatin (0.04 μM),[1]; [3],1.196
same,Complete Media,[1]; [4],1.644
same,Difference,[1]; [11],0.45
same,Cholesterol-free,[2]; [15],1.227
same,Complete,"[2]; NCI-H292 cells, complete media",0.906
same,Difference,[2]; [24],−0.32
N[C@@H]1CONC1=O [D-Cycloserine],Cholesterol-free media + simvastatin (0.04 μM),[1]; [22],1.193
same,Complete Media,[1]; [23],1.005
same,Difference,[1]; [5],−0.19
same,Cholesterol-free,[2]; [15],1.516
same,Difference,[2]; [24],−0.37
N[C@H](CS)C(=O)O [D-Cysteine],Cholesterol-free media + simvastatin (0.04 μM),[1]; [22],1.145
same,Complete Media,[1]; [23],0.9078
same,Difference,[1]; [5],−0.24
same,Cholesterol-free,[2]; [15],1.1
same,Complete,"[2]; NCI-H292 cells, complete media",0.7316
same,Difference,[2]; [24],−0.37
O=C(CO)[C@@H](O)[C@H](O)[C@H](O)CO [D-Fructose],Cholesterol-free media + simvastatin (0.04 μM),[1]; [22],1.284
same,Complete Media,[1]; [23],1.053
same,Difference,[1]; [5],−0.23
same,Difference,[2]; [12],0.05
same,Cholesterol-free,[2]; [13],1.151
same,Complete,[2]; [14],1.203
O=C(O)[C@H](O)[C@@H](O)[C@H](O)[C@H](O)CO [D-Gluconic acid],Cholesterol-free media + simvastatin (0.04 μM),[1],1.103
same,Complete Media,[1],0.9995
same,Difference,[1],−0.10
same,Cholesterol-free,[2],1.845
same,Complete,[2],1.115
same,Difference,[2],−0.73
